{"source": "patent US20180079912A1", "about": "“ANTIFOULING MATERIALS” (priority 2013, published 2018)", "key": {"[1]": {"test": "Layer thickness on Ti evaluated by XPS", "type": "physicochemical", "conditions": "Ti substrates, prolonged incubation", "experimental": "The X-ray Photoelectron Spectroscopy (XPS) measurements were performed using a Kratos AXIS Ultra X-ray photoelectron spectrometer (Kratos Analytical Ltd., Manchester, UK). Spectra were acquired using the A1-Kα monochromatic X-ray source (1,486.7 eV). Sample take-off angle was 90° (i.e. normal to the analyzer). The vacuum pressure in the analyzing chamber maintained to 2·10^-9 Torr. […] Data analyses were done using the Kratos Vision data reducing processing software (Kratos Analytical Ltd.) and […] Software Ltd.). Using the XPS measurements, it is possible to calculate the thickness of the assembled layers. We have done so using the standard attenuation relations of the photoelectrons emerging from different sample depths. The thickness calculation is based on the Briggs et al. method and others. For the Au substrate, the overlay thickness d (nm) expressed as: […] Calculated, using S. Tougard […] software (http://www.quases.com). Inelastic electron mean free path calculated from the Tanuma, Powell and Penn algorithm [Penn, 1994]."}, "[2]": {"test": "QCM-D real-time adhesion of peptides to Ti sensor (Sauerbrey model)", "conditions": "QCM-D on Ti sensor, 0.5 mg/mL in MeOH, 40 minutes", "experimental": "QCM-D (Q-sense, Biolin Scientific) was used for the study of peptide adhesion onto Ti surface. Measurements were performed in a flow module E1 system. Ti sensors with a fundamental resonant frequency of 5 MHz were also purchased from Q-sense and used as supplied. Prior to each experiment Ti sensors were cleaned with Oxygen/Plasma (Atto, Diener Electronic), followed by rinsing with 2% SDS and TDW and finally dried under N2. All QCM-D experiments were performed under flow-through conditions using a digital peristaltic pump ([…] Peristaltic Pump, IDEX) operating in pushing mode. The studied solutions were injected to the sensor crystal chamber at a rate of 0.1 mL/min. Organic solvent compatible tube and O-ring were used for the flow system. Peptides were dissolved in MeOH to a concentration of 0.5 mg/mL. The data were fitted with Sauerbrey model. According to this model the mass of adhering layer is calculated as […]"}, "[3]": {"test": "AFM topography of mica coated with the peptides", "type": "physicochemical", "conditions": "coated mica substrate, 0.5 mg/mL in methanol overnight", "experimental": "Freshly cleaved mica surfaces were dipped overnight in different peptide solution at a concentration of 0.5 mg/mL in methanol. Then, the surfaces were washed with fresh methanol and dried under N2."}, "[4]": {"test": "Dynamic water contact angles, tilting-plate method", "type": "physicochemical", "conditions": "gold substrate after coating", "experimental": "(§1) The wetting properties were further investigated by the tilting-plate method that measured the dynamic contact angles, because it was essential in the confirmation of self-cleaning properties to investigate the dynamic water contact angles and surface free energies. The advancing (yadv) and receding (yrec) water contact angles of f-DOPA-coated substrates were measured, and the contact angle hysteresis (i.e., (yadv-yrec)) of each substrate was calculated. […] A water droplet on the substrate easily rolled off at a tilt angle of 5.31, which is clear evidence of self-cleaning properties. […] In addition, the surface free energy (gS) was calculated based on the Owens-Wendt geometric mean equation that divides the surface free energy into the dispersive (gDS) and polar (gPS) ones."}, "[5]": {"test": "XPS, SEM and AFM of f-DOPA films", "type": "physicochemical", "experimental": "After 12 h, the substrate was washed with acetonitrile, and the coating process was repeated with a fresh f-DOPA solution."}, "[6]": {"test": "Surface free energy, Owens-Wendt geometric mean equation", "type": "physicochemical", "conditions": "f-DOPA-coated gold surface; water and diiodomethane", "experimental": "as §1\nThe surface free energy (gS; gS=gDS+gPS) of each surface was determined by measuring the contact angles with water and diiodomethane (CH2I2). The surface free energy of the f-DOPA-coated gold surface was calculated to be 0.279 mJ m^−2, and the other substrates have the surface free energies between 0.2 and 0.9 mJ m^−2. These values are extremely low, probably because of both the structural roughness and the incorporated perfluoro groups. For comparison, the surface free energy of a smooth surface modified with CF3 groups in hexagonal close packing was reported to be 6.7 mJ m^−2. […]"}, "[7]": {"test": "Coating thickness by ellipsometry (Cauchy model)", "type": "physicochemical", "conditions": "Cauchy film model", "experimental": "The thickness of the peptide-based coating was measured using α-SE spectroscopic ellipsometer (J. A. Woollam, Lincoln, Nebr., USA). […] The thickness of the layers and refractive indices were fitted according to the Cauchy model. The coefficients of the Cauchy equation were initially fixed for organic layers (An=1.45, Bn=0.01 and Cn=0), and an angle offset was permitted. Then, the parameters were allowed to be fitted to determine more accurate values."}, "[8]": {"test": "Contact angle measurements of peptide-coated surfaces", "type": "physicochemical", "conditions": "titanium substrate coated with peptide; bare 43.2°; 0.5 mg/mL in methanol", "experimental": "The clean surfaces were dipped in a peptide solution (0.5 mg/mL in methanol) and left for overnight at RT. Then, they were rinsed extensively with methanol and dried under nitrogen. Contact angle measurements were carried out using a Theta Lite optical tensiometer (Attension, Finland). Each experimental measurement consisted of three repeats, and the reported angles were averaged. […] We chose this concentration of peptide since it formed a substantial coating that gave a good signal in various characterization methods. After incubation, we thoroughly washed the substrate with methanol and dried it under nitrogen. Due to the hydrophobic moieties of the peptides, water could not be used as a solvent system despite its high polarity. We used methanol as the solvent since it dissolved the peptide completely, and at the same time allowed it to adhere the substrate. Since methanol is a toxic solvent, we also examined other solvents with different polarities."}}, "note": "Square brackets hold non-standard residues; d marks the D form. Peptide text beside a SMILES is read from it. Phe(4-F) = N[C@@H](Cc1ccc(F)cc1)C(=O)O; Dopa = N[C@@H](Cc1ccc(O)c(O)c1)C(=O)O", "data": [{"molecule": "NH2-L-DOPA-D-(4F)Phe(2)-L-(4F)Phe(3)-COOMe [Peptide 3]", "values": [{"measurement": "average thickness of the peptide layer evaluated by XPS", "setting": "[1]", "result": "3.9±0.1", "unit": "nm"}, {"measurement": "Density", "setting": "[2]", "result": 760, "unit": "Kg/m^3"}, {"measurement": "Mass/Area", "setting": "[2]", "result": "43 ± 4", "unit": "ng/cm^2"}, {"measurement": "Thickness", "setting": "[2]", "result": "5.4 ± 0.5", "unit": "Å"}, {"measurement": "height of spherical-like aggregates (AFM)", "setting": "[3]", "result": "0.20-2.30 nm"}]}, {"molecule": "NH2-L-DOPA-L-(4F)Phe(2)-D-(4F)Phe(3)-COOMe [Peptide 2]", "values": [{"measurement": "average thickness of the peptide layer evaluated by XPS", "setting": "[1]", "result": "4.3±0.1", "unit": "nm"}, {"measurement": "Density", "setting": "[2]", "result": 824, "unit": "Kg/m^3"}, {"measurement": "Mass/Area", "setting": "[2]", "result": "57 ± 3", "unit": "ng/cm^2"}, {"measurement": "Thickness", "setting": "[2]", "result": "7.3 ± 0.3", "unit": "Å"}, {"measurement": "height of spherical-like aggregates (AFM)", "setting": "[3]", "result": "0.20-0.48 nm"}]}, {"molecule": "NC(Cc1ccc(O)c(O)c1)C(=O)OCCC(F)(F)C(F)(F)C(F)(F)C(F)(F)C(F)(F)C(F)(F)C(F)(F)C(F)(F)F", "note": "(centres unmarked) [f-DOPA]", "values": [{"measurement": "contact angle hysteresis", "setting": "[4]", "result": 9.91}, {"measurement": "tilt angle at which a water droplet rolled off", "setting": "[4]", "result": 5.31}, {"measurement": "film thickness", "setting": "[5]; f-DOPA coating on gold, from disappearance of Au XPS peaks", "result": "≥ 10", "unit": "nm"}, {"measurement": "root-mean-square roughness (AFM)", "setting": "[5]; f-DOPA film", "result": 533.92, "unit": "nm"}, {"measurement": "surface free energy", "setting": "[6]", "result": 0.279, "unit": "mJ m^−2"}]}, {"molecule": "COC(=O)[C@H](Cc1ccc(F)cc1)NC(=O)[C@@H](N)Cc1ccc(O)c(O)c1", "note": "[Peptide 6, NH2-L-DOPA-L-(4F) Phe-COOMe] (H-[Dopa]-[Phe(4-F)]-OMe)", "values": [{"measurement": "average thickness of the peptide layer evaluated by XPS", "setting": "[1]", "result": "3.82±0.04", "unit": "nm"}, {"measurement": "thickness of the coating by ellipsometry", "setting": "[7]", "result": "3.66±0.04", "unit": "nm"}, {"measurement": "Density", "setting": "[2]", "result": 805, "unit": "Kg/m^3"}, {"measurement": "Mass/Area", "setting": "[2]", "result": "13 ± 2", "unit": "ng/cm^2"}, {"measurement": "Thickness", "setting": "[2]", "result": "1.7 ± Å"}, {"measurement": "height of spherical-like aggregates (AFM)", "setting": "[3]", "result": "1.02-3.65 nm"}]}, {"molecule": "NH2-L-DOPA-D-(4F)Phe(2)-D-(4F)Phe(3)-COOMe [Peptide 4]", "values": [{"measurement": "average thickness of the peptide layer evaluated by XPS", "setting": "[1]", "result": "4.41±0.03", "unit": "nm"}, {"measurement": "Density", "setting": "[2]", "result": 769, "unit": "Kg/m^3"}, {"measurement": "Mass/Area", "setting": "[2]", "result": "45 ± 2", "unit": "ng/cm^2"}, {"measurement": "Thickness", "setting": "[2]", "result": "5.6 ± 0.3", "unit": "Å"}, {"measurement": "height of spherical-like aggregates (AFM)", "setting": "[3]", "result": "0.32-0.65 nm"}]}, {"molecule": "NH2-L-DOPA-L(4F)-Phe(2)-L(4F)-Phe(3)-COOMe [Peptide 1]", "values": [{"measurement": "average thickness of the peptide layer evaluated by XPS", "setting": "[1]", "result": "3.9±0.1", "unit": "nm"}, {"measurement": "Density", "setting": "[2]", "result": "767 ± 4", "unit": "Kg/m^3"}, {"measurement": "Mass/Area", "setting": "[2]", "result": "72.1 ± 0.4", "unit": "ng/cm^2"}, {"measurement": "Thickness", "setting": "[2]", "result": "9.11 ± 0.05", "unit": "Å"}, {"measurement": "height of spherical-like aggregates (AFM)", "setting": "[3]", "result": "0.25-0.50 nm"}, {"measurement": "contact angle", "setting": "[8]", "result": 68.1, "unit": "°"}]}, {"molecule": "NH2-DOPA-L-(F5)Phe(2)-L-(F5)Phe(3)-COOMe [Peptide 5]", "values": [{"measurement": "average thickness of the peptide layer evaluated by XPS", "setting": "[1]", "result": "4.2±0.1", "unit": "nm"}, {"measurement": "thickness of the coating by ellipsometry", "setting": "[7]", "result": "5.2±0.1", "unit": "nm"}, {"measurement": "Density", "setting": "[2]", "result": 717, "unit": "Kg/m^3"}, {"measurement": "Mass/Area", "setting": "[2]", "result": "27 ± 3", "unit": "ng/cm^2"}, {"measurement": "Thickness", "setting": "[2]", "result": "3.4 ± Å"}, {"measurement": "height of spherical-like aggregates (AFM)", "setting": "[3]", "result": "1.00-5.00 nm"}]}]}
